# Counter-ions that a name gives are not always drawn.
# What was measured:
# [1] = test system: P2Y12 platelet reactivity; assay: Platelet function test: VerifyNow, P2Y12 platelet reactivity unit (PRU); format: in vivo, human; conditions: 9 days, 24 Hours Post Day 9 Dose
# Description: (§1) ANOVA models with sequence, subject within sequence, period and regimen were fitted to the pharmacodynamic parameters.
# [2] = test system: platelet aggregation with ADP; assay: Platelet function test: Aggregometry with adenosine diphosphate (ADP), maximum platelet aggregation (MPA); format: in vivo, human; conditions: for MPA with 5 μM ADP, Mean (SD) / MPA with 20 μM ADP, Mean (SD): 9 days, 24 Hours Post Day 9 Dose
# Description: as §1
# CYP2C19 = molecular target: T1, CYP2C19 (Homo sapiens, UniProt P33261); assay: CYP2C19 inhibition by PPIs
# T1 construct: The subject was a CYP2C19 extensive metabolizer (wt/wt); from tissue; host or cells: Liver of healthy study subjects (in vivo), CYP2C19 wt/wt genotype
# [3] = test system: platelet function (Vasodilator-stimulated phosphoprotein, VASP); assay: Platelet function test: Vasodilator-stimulated phosphoprotein (VASP), platelet reactivity index (PRI); format: in vivo, human; conditions: for Difference in the LS-Means of PRI (with PPI vs without PPI): 9 days, 24 hours post Day 9 dose
# Description: as §1
# [4] = PPI 80 mg with clopidogrel 300-mg loading dose and 75 mg/day maintenance dose; healthy subjects; cited from earlier work
# [5] = PPI group dexlansoprazole 60 mg: clopidogrel 75 mg QD alone or clopidogrel + PPI
# [6] = PPI group esomeprazole 40 mg: clopidogrel 75 mg QD alone or clopidogrel + PPI
# [7] = PPI group lansoprazole 30 mg: clopidogrel 75 mg QD alone or clopidogrel + PPI
# [8] = PPI group omeprazole 80 mg: clopidogrel 75 mg QD alone or clopidogrel + PPI
# [9] = clopidogrel with lansoprazole 30 mg vs clopidogrel alone
# [10] = clopidogrel with dexlansoprazole 60 mg vs clopidogrel alone
# T1 sequence (P33261 whole entry): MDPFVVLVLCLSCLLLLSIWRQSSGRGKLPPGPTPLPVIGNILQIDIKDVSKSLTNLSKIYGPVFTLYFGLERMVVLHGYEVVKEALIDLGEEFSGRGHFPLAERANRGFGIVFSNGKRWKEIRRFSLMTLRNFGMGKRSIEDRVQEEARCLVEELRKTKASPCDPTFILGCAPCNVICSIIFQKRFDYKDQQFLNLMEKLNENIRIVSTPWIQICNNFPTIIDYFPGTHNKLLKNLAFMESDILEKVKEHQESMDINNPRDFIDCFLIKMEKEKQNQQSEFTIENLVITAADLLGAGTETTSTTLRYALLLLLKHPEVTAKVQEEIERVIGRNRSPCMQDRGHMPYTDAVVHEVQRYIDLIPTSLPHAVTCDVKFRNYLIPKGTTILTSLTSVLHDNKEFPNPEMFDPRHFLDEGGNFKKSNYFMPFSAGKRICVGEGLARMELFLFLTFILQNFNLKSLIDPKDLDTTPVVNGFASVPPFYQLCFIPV
CYP2C19 inhibition (strength of inhibitor) (CYP2C19),Compound,"PRU, Mean (SD) [1, 5]","PRU, Mean (SD) [1, 6]","PRU, Mean (SD) [1, 7]","PRU, Mean (SD) [1, 8]","MPA with 5 μM ADP, Mean (SD) [2, 5]","MPA with 20 μM ADP, Mean (SD) [2, 5]","MPA with 5 μM ADP, Mean (SD) [2, 6]","MPA with 20 μM ADP, Mean (SD) [2, 6]","MPA with 5 μM ADP, Mean (SD) [2, 7]","MPA with 20 μM ADP, Mean (SD) [2, 7]","MPA with 5 μM ADP, Mean (SD) [2, 8]","MPA with 20 μM ADP, Mean (SD) [2, 8]",further results
–,"COC(=O)[C@H](c1ccccc1Cl)N1CCc2sccc2C1 [Clopidogrel, methyl (+)-(S)-α-(2-chlorophenyl)-6,7-dihydrothieno[3,2-c]pyridine-5 (4H)-acetate sulfate (1:1)]",124.2 (79.10) %,121.1 (50.64) %,114.9 (56.44) %,133.0 (67.62) %,34.6 (14.23) %,43.1 (13.24) %,29.3 (10.41) %,39.3 (13.22) %,28.1 (6.76) %,36.7 (9.11) %,34.2 (12.32) %,43.5 (14.00) %,–
weak CYP2C19 inhibitors,Cc1c(OCC(F)(F)F)ccnc1C[S+]([O-])c1nc2ccccc2[nH]1 (stereo not drawn) [Lansoprazole],–,–,131.8 (71.27) %,–,–,–,–,–,30.8 (9.35) %,41.6 (12.65) %,–,–,"Difference in the LS-Means of PRI (with PPI vs without PPI) ([3]; clopidogrel 75 mg QD with vs without lansoprazole 30 mg QD): 4.1016; effect on clopidogrel PD in terms of PRI (90% CI of LS-Mean difference against 15% boundary) [3, 9]: equivalence in PD was demonstrated; increase in mean PRI [3, 9]: 4.1%"
potent CYP2C19 inhibitors,COc1ccc2[nH]c([S+]([O-])Cc3ncc(C)c(OC)c3C)nc2c1 (stereo not drawn) [Omeprazole],–,–,–,201.5 (59.65) %,–,–,–,–,–,–,42.5 (14.74) %,53.5 (13.75) %,metabolic DDI with clopidogrel [4]: a metabolic DDI was found to exist; Difference in the LS-Means of PRI (with PPI vs without PPI) ([3]; clopidogrel 75 mg QD with vs without omeprazole 80 mg QD): 11.0407
weak CYP2C19 inhibitors,Cc1c(OCC(F)(F)F)ccnc1C[S@@+]([O-])c1nc2ccccc2[nH]1 [Dexlansoprazole],146.7 (84.45) %,–,–,–,36.2 (16.87) %,46.3 (16.93) %,–,–,–,–,–,–,"Difference in the LS-Means of PRI (with PPI vs without PPI) ([3]; clopidogrel 75 mg QD with vs without dexlansoprazole 60 mg QD): 2.0474; effect on clopidogrel PD in terms of PRI (90% CI of LS-Mean difference against 15% boundary) [3, 10]: equivalence in PD was demonstrated; increase in mean PRI [3, 10]: 2.0%; difference in MPA compared with clopidogrel alone, statistical significance ([2]; clopidogrel with dexlansoprazole 60 mg, either MPA (5 and 20 μM ADP)): not statistically significant"
potent CYP2C19 inhibitors,COc1ccc2nc([S@@+]([O-])Cc3ncc(C)c(OC)c3C)[nH]c2c1 [Esomeprazole],–,177.6 (55.37) %,–,–,–,–,38.2 (17.77) %,47.9 (15.77) %,–,–,–,–,Difference in the LS-Means of PRI (with PPI vs without PPI) ([3]; clopidogrel 75 mg QD with vs without esomeprazole 40 mg QD): 11.4437; effect on clopidogrel PD in terms of PRI (90% CI of LS-Mean difference against 15% boundary) ([3]; clopidogrel with esomeprazole 40 mg vs clopidogrel alone): very similar to omeprazole 80 mg

# Source: patent US9889125B2 (TAKEDA PHARMACEUTICALS U.S.A., INC., priority 2011, dated 2018)
